According to ChEMBL document CHEMBL1135477, “Antifungal agents. 10. New derivatives of 1-[(aryl)[4-aryl-1H-pyrrol-3-yl]methyl]-1H-imidazole, synthesis, anti-candida activity, and quantitative structure-analysis relationship studies” (J Med Chem, 2002):

Target: Lanosterol 14-alpha demethylase (Candida albicans (strain SC5314 / ATCC MYA-2876) (Yeast), UniProt P10613)
Assay: Anticandida activity- (MIC90 compound) / (MIC90 bifonazole)
Format: functional

Chain of Lanosterol 14-alpha demethylase (P10613 whole entry): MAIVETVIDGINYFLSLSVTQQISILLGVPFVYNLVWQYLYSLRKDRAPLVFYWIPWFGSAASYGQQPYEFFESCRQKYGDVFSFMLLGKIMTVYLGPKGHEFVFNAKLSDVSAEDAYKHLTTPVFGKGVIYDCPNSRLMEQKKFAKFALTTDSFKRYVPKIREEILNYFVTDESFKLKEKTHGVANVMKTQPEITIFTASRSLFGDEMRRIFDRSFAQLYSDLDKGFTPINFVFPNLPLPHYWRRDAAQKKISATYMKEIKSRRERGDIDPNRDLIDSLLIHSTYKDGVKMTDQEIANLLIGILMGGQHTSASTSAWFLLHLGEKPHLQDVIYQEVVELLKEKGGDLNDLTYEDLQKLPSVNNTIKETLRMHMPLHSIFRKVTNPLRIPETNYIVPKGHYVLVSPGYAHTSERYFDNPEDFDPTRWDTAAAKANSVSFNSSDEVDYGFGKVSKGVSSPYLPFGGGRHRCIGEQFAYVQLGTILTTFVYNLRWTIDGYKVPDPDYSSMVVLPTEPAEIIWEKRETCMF

Compared with c1ccc([C@@H](c2ccc(-n3cccc3)cc2)n2ccnc2)cc1, Cc1ccc([C@@H](c2ccc(-n3cccc3)cc2)n2ccnc2)cc1 is lower in Ratio: 0.25 for the first, 0.13 for the second.

Compared with Cc1ccc(-c2cn(Cc3ccc(Cl)cc3Cl)cc2[C@@H](c2ccccc2)n2ccnc2)cc1, Clc1ccc(Cn2cc(-c3ccccc3)c([C@@H](c3ccccc3)n3ccnc3)c2)c(Cl)c1 is lower in Ratio: 42 for the first, 22 for the second.

Compared with COc1ccc([C@H](Cc2ccc(F)cc2)n2ccnc2)cc1, COc1ccc([C@H](Cc2ccc(Cl)cc2)n2ccnc2)cc1 is lower in Ratio: 16 for the first, 4 for the second.

Compared with COc1ccc([C@H](Cc2cccc(F)c2)n2ccnc2)cc1, COc1ccc([C@H](Cc2ccccc2F)n2ccnc2)cc1 is lower in Ratio: 66 for the first, 63 for the second.

First: Fc1ccc([C@@H](c2ccn(-c3ccc(F)cc3)c2)n2ccnc2)cc1
Second: Fc1ccc(-n2ccc([C@H](c3ccc(Cl)cc3)n3ccnc3)c2)cc1
The Ratio of the first is lower: 1 for the first, 1.8 for the second.

Compared with Fc1ccc(-n2ccc([C@@H](c3ccccc3)n3ccnc3)c2)cc1, Clc1ccc([C@@H](c2ccn(-c3ccc(Cl)cc3)c2)n2ccnc2)cc1 is lower in Ratio: 4 for the first, 3 for the second.

Compared with COc1ccc([C@H](Cc2ccccc2Cl)n2ccnc2)cc1, COc1ccc([C@H](Cc2ccccc2[N+](=O)[O-])n2ccnc2)cc1 is higher in Ratio: 63 for the first, 123 for the second.

Compared with COc1ccc([C@H](Cc2cccc(-n3cccc3)c2)n2ccnc2)cc1, COc1ccc(C[C@@H](c2ccc(OC)cc2)n2ccnc2)cc1 is lower in Ratio: 58 for the first, 8 for the second.

First: COc1ccc([C@H](Cc2ccccc2Cl)n2cncn2)cc1
Second: COc1ccc([C@@H](Cc2ccc(Cl)cc2Cl)n2ccnc2)cc1
The Ratio of the first is higher: 32 for the first, 3.6 for the second.

Compared with COc1ccc([C@@H]([C@@H](Cc2ccc(Cl)cc2Cl)c2ccc(Cl)cc2)n2cncn2)cc1, CCC(c1ccc(Cl)cc1)[C@@H](c1ccc(OC)cc1)n1cncn1 (stereo partly drawn) is lower in Ratio: 62 for the first, 29 for the second.

Compared with O=[N+]([O-])c1ccc([C@@H](c2ccccc2)n2ccnc2)cc1, Fc1ccc(-c2c[nH]cc2[C@@H](c2ccccc2)n2ccnc2)cc1 is lower in Ratio: 2.2 for the first, 1 for the second.

First: Cn1cc(-c2ccc(Cl)cc2)c([C@@H](c2ccccc2)n2ccnc2)c1
Second: Cc1ccc(-c2cn(C)cc2[C@@H](c2ccccc2)n2ccnc2)cc1
The Ratio of the first is lower: 0.9 for the first, 3.8 for the second.

Going from Cn1cc(-c2ccccc2)c([C@H](c2ccccc2)n2ccnc2)c1 to Clc1ccc([C@@H](c2ccc(-n3cccc3)cc2)n2ccnc2)cc1, the Ratio falls from 4 to 0.5.

Cc1ccc([C@H](c2ccn(-c3ccc(Cl)cc3)c2)n2ccnc2)cc1 gave a Ratio of 0.89.

Tested on: Candida albicans
Assay: Compound was tested for its anti-candida activity, expressed as ratio of minimum inhibitory concentration
Format: functional

Compound c1ccc(-c2ccc([C@@H](c3ccccc3)n3ccnc3)cc2)cc1 [BIFONAZOLE] has an MIC90 ratio of 1.
